Earlier results in patent US20160338997A1, “KELOID REDUCTION USING TOPICAL ALLANTOIN” (Scioderm, Inc., priority 2013, published 2016).

Settings: emulsion pH 6.8 to 7.5; with time and in accelerated stability tests at 40° C

NC(=O)NC1NC(=O)NC1=O (stereo not shown) [allantoin]
degradation of allantoin: degrades significantly
